Assay results published in patent publication US12540120B2, “Herbicidal compounds” (SYNGENTA CROP PROTECTION AG, priority 2019, dated 2026).

Columns and labels:
Type in all cases: in vivo
[1] = test system: Amaranthus retoflexus (AMARE); experiment: B5 Pre-Emergence Efficacy—Test 2; conditions: 250 g/ha, evaluated after 13 days
Method in brief: (§1)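 Pre-emergence spray, 250 g/ha, acetone/water 50:50 + 0.5% Tween 20, applied 1 day post-sowing. Glasshouse 24/16 °C, 14 h light, 65% RH. Damage read at 13 d; 5-point scale (5=80-100%, 1=0-19%).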

[2] = test system: Solanum nigrum (SOLNI); experiment: B5 Pre-Emergence Efficacy—Test 2; conditions: 250 g/ha, evaluated after 13 days
Method in brief: as §1

[3] = test system: Setaria faberi (SETFA); experiment: B5 Pre-Emergence Efficacy—Test 2; set-up: key: 5-point scale: 5=80-100%, 4=60-79%, 3=40-59%, 2=20-39%, 1=0-19% damage; conditions: 250 g/ha, evaluated after 13 days
Method in brief: as §1

[4] = test system: Ipomoea hederacea (IPOHE); experiment: B5 Pre-Emergence Efficacy—Test 2; set-up: key: 5-point scale: 5=80-100%, 4=60-79%, 3=40-59%, 2=20-39%, 1=0-19% damage; conditions: 250 g/ha, evaluated after 13 days
Method in brief: as §1

[5] = test system: Lolium perenne (LOLPE); experiment: B5 Pre-Emergence Efficacy—Test 2; set-up: key: 5-point scale: 5=80-100%, 4=60-79%, 3=40-59%, 2=20-39%, 1=0-19% damage; conditions: 250 g/ha, evaluated after 13 days
Method in brief: as §1

[6] = test system: Echinochloa crus-galli (ECHCG); experiment: B5 Pre-Emergence Efficacy—Test 2; set-up: key: 5-point scale: 5=80-100%, 4=60-79%, 3=40-59%, 2=20-39%, 1=0-19% damage; conditions: 250 g/ha, evaluated after 13 days
Method in brief: as §1

[7] = test system: Setaria faberi (SETFA); experiment: B2 Post-Emergence Efficacy—Test 2; conditions: post-emergence application, 250 g/ha, evaluated after 13 days (Test 2)
Method in brief: (§2)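 Damage scores (five-point scale, 5=80-100%, 4=60-79%, 3=40-59%, 2=20-39%, 1=0-19%) reflect percentage injury 13 days after treatment. Plants received 250 g/ha as a post-emergence spray at 8 days after sowing.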

[8] = test system: Amaranthus retoflexus (AMARE); experiment: B2 Post-Emergence Efficacy—Test 2; conditions: post-emergence application, 250 g/ha, evaluated after 13 days (Test 2)
Method in brief: as §2

[9] = test system: Solanum nigrum (SOLNI); experiment: B2 Post-Emergence Efficacy—Test 2; conditions: post-emergence application, 250 g/ha, evaluated after 13 days (Test 2)
Method in brief: as §2

[10] = test system: Ipomoea hederacea (IPOHE); experiment: B2 Post-Emergence Efficacy—Test 2; conditions: post-emergence application, 250 g/ha, evaluated after 13 days (Test 2)
Method in brief: as §2

[11] = test system: Lolium perenne (LOLPE); experiment: B2 Post-Emergence Efficacy—Test 2; conditions: post-emergence application, 250 g/ha, evaluated after 13 days (Test 2)
Method in brief: as §2

[12] = test system: Echinochloa crus-galli (ECHCG); experiment: B2 Post-Emergence Efficacy—Test 2; conditions: post-emergence application, 250 g/ha, evaluated after 13 days (Test 2)
Method in brief: as §2

CCN(C)C(=O)c1ccc(CCc2c(Cl)ccc(F)c2-c2c(OC(=O)C(C)C)c(C)nn(C)c2=O)cc1F [Compound A-3.028, [5-[3-Chloro-2-[2-[4-[ethyl(methyl)carbamoyl]-3-fluoro-phenyl]ethyl]-6-fluoro-phenyl]-1,3-dimethyl-6-oxo-pyridazin-4-yl] 2-methylpropanoate]
4 (4=60-79%): percentage damage caused to the plant, five point scale, SETFA [7] | percentage damage caused to the plant, five point scale, AMARE [8]
5 (5=80-100%): Control of weed species after pre-emergence application, AMARE (percentage damage, five point scale) [1] | Control of weed species after pre-emergence application, SOLNI (percentage damage, five point scale) [2] | Control of weed species after pre-emergence application, SETFA (percentage damage, five point scale) [3] | Control of weed species after pre-emergence application, IPOHE (percentage damage, five point scale) [4] | Control of weed species after pre-emergence application, LOLPE (percentage damage, five point scale) [5] | Control of weed species after pre-emergence application, ECHCG (percentage damage, five point scale) [6] | percentage damage caused to the plant, five point scale, SOLNI [9] | percentage damage caused to the plant, five point scale, IPOHE [10] | percentage damage caused to the plant, five point scale, LOLPE [11] | percentage damage caused to the plant, five point scale, ECHCG [12]

Cc1nn(C)c(=O)c(-c2c(F)ccc(Cl)c2CCc2ccccc2C#N)c1OC(=O)C(C)C [Compound A-3.029]
2 (2=20-39%): Control of weed species after pre-emergence application, SETFA (percentage damage, five point scale) [3] | Control of weed species after pre-emergence application, LOLPE (percentage damage, five point scale) [5] | percentage damage caused to the plant, five point scale, SETFA [7] | percentage damage caused to the plant, five point scale, LOLPE [11]
5 (5=80-100%): Control of weed species after pre-emergence application, SOLNI (percentage damage, five point scale) [2] | percentage damage caused to the plant, five point scale, SOLNI [9] | percentage damage caused to the plant, five point scale, IPOHE [10]
3 (3=40-59%): Control of weed species after pre-emergence application, IPOHE (percentage damage, five point scale) [4] | Control of weed species after pre-emergence application, ECHCG (percentage damage, five point scale) [6]
1 (1=0-19%): percentage damage caused to the plant, five point scale, ECHCG [12]
4 (4=60-79%): Control of weed species after pre-emergence application, AMARE (percentage damage, five point scale) [1] | percentage damage caused to the plant, five point scale, AMARE [8]

Cc1nn(C)c(=O)c(-c2c(F)ccc(Cl)c2CCc2cccc(C#N)c2)c1OC(=O)C(C)C [Compound A-3.030]
4 (4=60-79%): Control of weed species after pre-emergence application, LOLPE (percentage damage, five point scale) [5] | Control of weed species after pre-emergence application, ECHCG (percentage damage, five point scale) [6] | percentage damage caused to the plant, five point scale, LOLPE [11]
3 (3=40-59%): Control of weed species after pre-emergence application, IPOHE (percentage damage, five point scale) [4]
2 (2=20-39%): percentage damage caused to the plant, five point scale, ECHCG [12]
5 (5=80-100%): Control of weed species after pre-emergence application, AMARE (percentage damage, five point scale) [1] | Control of weed species after pre-emergence application, SOLNI (percentage damage, five point scale) [2] | Control of weed species after pre-emergence application, SETFA (percentage damage, five point scale) [3] | percentage damage caused to the plant, five point scale, SETFA [7] | percentage damage caused to the plant, five point scale, AMARE [8] | percentage damage caused to the plant, five point scale, SOLNI [9] | percentage damage caused to the plant, five point scale, IPOHE [10]

Cc1nn(C)c(=O)c(-c2c(F)ccc(Cl)c2CCc2ccc(OC(C)(C)C)cc2)c1OC(=O)C(C)C [Compound A-3.035]
5 (5=80-100%): Control of weed species after pre-emergence application, SOLNI (percentage damage, five point scale) [2] | Control of weed species after pre-emergence application, SETFA (percentage damage, five point scale) [3] | Control of weed species after pre-emergence application, IPOHE (percentage damage, five point scale) [4] | Control of weed species after pre-emergence application, LOLPE (percentage damage, five point scale) [5] | percentage damage caused to the plant, five point scale, SETFA [7] | percentage damage caused to the plant, five point scale, AMARE [8] | percentage damage caused to the plant, five point scale, SOLNI [9] | percentage damage caused to the plant, five point scale, IPOHE [10] | percentage damage caused to the plant, five point scale, LOLPE [11]
4 (4=60-79%): Control of weed species after pre-emergence application, AMARE (percentage damage, five point scale) [1] | Control of weed species after pre-emergence application, ECHCG (percentage damage, five point scale) [6] | percentage damage caused to the plant, five point scale, ECHCG [12]

Cc1nn(C)c(=O)c(-c2c(F)ccc(Cl)c2CCc2ccc(C#N)cc2)c1OC(=O)C(C)C [Compound A-3.036, [5-[3-Chloro-2-[2-(4-cyanophenyl)ethyl]-6-fluoro-phenyl]-1,3-dimethyl-6-oxo-pyridazin-4-yl] 2-methylpropanoate]
4 (4=60-79%): percentage damage caused to the plant, five point scale, SETFA [7] | percentage damage caused to the plant, five point scale, LOLPE [11] | percentage damage caused to the plant, five point scale, ECHCG [12]
5 (5=80-100%): Control of weed species after pre-emergence application, AMARE (percentage damage, five point scale) [1] | Control of weed species after pre-emergence application, SOLNI (percentage damage, five point scale) [2] | Control of weed species after pre-emergence application, SETFA (percentage damage, five point scale) [3] | Control of weed species after pre-emergence application, IPOHE (percentage damage, five point scale) [4] | Control of weed species after pre-emergence application, LOLPE (percentage damage, five point scale) [5] | Control of weed species after pre-emergence application, ECHCG (percentage damage, five point scale) [6] | percentage damage caused to the plant, five point scale, AMARE [8] | percentage damage caused to the plant, five point scale, SOLNI [9] | percentage damage caused to the plant, five point scale, IPOHE [10]

Cc1nn(C)c(=O)c(-c2c(F)ccc(Cl)c2CCc2ccc(C3CC3)cc2)c1OC(=O)C(C)C [Compound A-3.038]
2 (2=20-39%): Control of weed species after pre-emergence application, ECHCG (percentage damage, five point scale) [6] | percentage damage caused to the plant, five point scale, ECHCG [12]
5 (5=80-100%): Control of weed species after pre-emergence application, AMARE (percentage damage, five point scale) [1] | Control of weed species after pre-emergence application, SOLNI (percentage damage, five point scale) [2] | Control of weed species after pre-emergence application, IPOHE (percentage damage, five point scale) [4] | Control of weed species after pre-emergence application, LOLPE (percentage damage, five point scale) [5] | percentage damage caused to the plant, five point scale, SETFA [7] | percentage damage caused to the plant, five point scale, AMARE [8] | percentage damage caused to the plant, five point scale, SOLNI [9] | percentage damage caused to the plant, five point scale, IPOHE [10] | percentage damage caused to the plant, five point scale, LOLPE [11]
1 (1=0-19%): Control of weed species after pre-emergence application, SETFA (percentage damage, five point scale) [3]

Cc1nn(C)c(=O)c(-c2c(F)ccc(Cl)c2/C=C/c2ccccc2C#N)c1OC(=O)C(C)C [Compound A-4.029]
1 (1=0-19%): percentage damage caused to the plant, five point scale, LOLPE [11] | percentage damage caused to the plant, five point scale, ECHCG [12]
2 (2=20-39%): Control of weed species after pre-emergence application, AMARE (percentage damage, five point scale) [1]
4 (4=60-79%): Control of weed species after pre-emergence application, SOLNI (percentage damage, five point scale) [2] | percentage damage caused to the plant, five point scale, AMARE [8] | percentage damage caused to the plant, five point scale, SOLNI [9] | percentage damage caused to the plant, five point scale, IPOHE [10]
0: Control of weed species after pre-emergence application, SETFA (percentage damage, five point scale) [3] | Control of weed species after pre-emergence application, IPOHE (percentage damage, five point scale) [4] | Control of weed species after pre-emergence application, LOLPE (percentage damage, five point scale) [5] | Control of weed species after pre-emergence application, ECHCG (percentage damage, five point scale) [6] | percentage damage caused to the plant, five point scale, SETFA [7]

Cc1nn(C)c(=O)c(-c2c(F)ccc(Cl)c2/C=C/c2cccc(C#N)c2)c1OC(=O)C(C)C [Compound A-4.030]
1 (1=0-19%): Control of weed species after pre-emergence application, SETFA (percentage damage, five point scale) [3] | Control of weed species after pre-emergence application, IPOHE (percentage damage, five point scale) [4] | Control of weed species after pre-emergence application, ECHCG (percentage damage, five point scale) [6] | percentage damage caused to the plant, five point scale, LOLPE [11] | percentage damage caused to the plant, five point scale, ECHCG [12]
4 (4=60-79%): Control of weed species after pre-emergence application, SOLNI (percentage damage, five point scale) [2]
3 (3=40-59%): Control of weed species after pre-emergence application, AMARE (percentage damage, five point scale) [1] | percentage damage caused to the plant, five point scale, SOLNI [9] | percentage damage caused to the plant, five point scale, IPOHE [10]
0: percentage damage caused to the plant, five point scale, SETFA [7]
2 (2=20-39%): Control of weed species after pre-emergence application, LOLPE (percentage damage, five point scale) [5] | percentage damage caused to the plant, five point scale, AMARE [8]

Cc1nn(C)c(=O)c(-c2c(F)ccc(Cl)c2/C=C/c2ccc(OC(C)(C)C)cc2)c1OC(=O)C(C)C [Compound A-4.035]
0: Control of weed species after pre-emergence application, AMARE (percentage damage, five point scale) [1] | Control of weed species after pre-emergence application, SOLNI (percentage damage, five point scale) [2] | Control of weed species after pre-emergence application, SETFA (percentage damage, five point scale) [3] | percentage damage caused to the plant, five point scale, SETFA [7] | percentage damage caused to the plant, five point scale, LOLPE [11] | percentage damage caused to the plant, five point scale, ECHCG [12]
3 (3=40-59%): percentage damage caused to the plant, five point scale, SOLNI [9] | percentage damage caused to the plant, five point scale, IPOHE [10]
1 (1=0-19%): Control of weed species after pre-emergence application, IPOHE (percentage damage, five point scale) [4] | Control of weed species after pre-emergence application, LOLPE (percentage damage, five point scale) [5] | Control of weed species after pre-emergence application, ECHCG (percentage damage, five point scale) [6] | percentage damage caused to the plant, five point scale, AMARE [8]
